In assay [1] the test system is DCs. In words: Cytokine and chemokine production by treated DCs. It is filed as cell-based. From the text:
The ability of the GSK3β inhibitor SB216763 to induce maturation was particularly striking. While it is possible this effect was limited to the dramatic increase in free β-catenin, GSK3β also has other targets. For example, by inhibiting GSK3β-mediated phosphorylation of NF-AT, this transcriptional activator would be more readily translocated into the nucleus, possibly synergyzing with β-catenin (Crabtree and Olson, 2002). Other potential mediators (eg Hedgehog, p53, c-myc) might also be affected (Doble and Woodgett, 2003). […] Cytokine and chemokine multiplex analysis The levels of cytokines and chemokines were measured with Luminex suspension array technology. Supernatants were collected and frozen at −80° C. For human CD34^+-derived DCs, cell culture supernatants were then analyzed using the Beadlyte cytokine assay kit (Upstate) with manufacturer's protocol. For mouse cytokines, supernatants were analyzed using the Bio-Plex cytokine assay kit and supporting reagents (BioRad) following manufacturer's procedures.

A further assay relates to CD11c+ DCs. In words: DC maturation of murine BMDCs, CD86 expression by FACS. Type of assay: cell-based, mouse. On the technique in general: A flow cytometer gives signals particle by particle.
A further assay deals with GSK3β (Homo sapiens, UniProt P49841). Particulars: cited from earlier work.
Assay [2] relates to DCs. Briefly: MHC class II redistribution in DCs by immunofluorescence. Particulars: immunofluorescence (not shown). Type of assay: cell-based.
For a further assay, the system named is active β-catenin. Briefly: Active β-catenin by sequential immunoprecipitation and immunoblotting in BMDCs. It is filed as cell-based. Particulars: bone marrow-derived DC cultures. From the text:
Bone marrow-derived DC cultures were either treated with LPS, SB216763 or cluster disruption (CD). CD11c^+ cells were purified and same number of cells were used to make cell lysates as described. Cell lysates were then subject to sequential immunoprecipitation with antibodies against E-cadherin and β-catenin, followed by immunoblotting with antibodies against E-cadherin (top), active β-catenin (middle) and total β-catenin (bottom).
BMDCs were either treated with LPS or CD and cell lysates from CD11c^+ DCs were subject to sequential immunoprecipitation with antibodies against E-cadherin and β-catenin, followed by immunoblotting with antibodies against E-cadherin (top), active β-catenin (middle) and total β-catenin (bottom).
Reagents and Antibodies Rat anti-E-cadherin, mouse anti-β-catenin, mouse anti-p120 catenin were purchased from BD Transduction Laboratories (Lexington, Calif.). Both mouse anti-E-cadherin (HECD-1 and SHE78-7) and rat anti-E-cadherin (ECCD-1 and 2) monoclonal antibodies were obtained from Zymed (San Francisco, Calif.). Rat monoclonal anti-E-cadherin and rabbit polyclonal β-catenin were obtained from Sigma-Aldrich. […] Flow Cytometry Assays Cells were stained for 30 min on ice with primary antibody and if necessary secondary antibody, washed, and then evaluated on a FACSCalibur™ (Becton Dickinson). […]
On the technique in general: A western blot detects proteins with antibodies after separation by electrophoresis.

Assay [3] concerns β-catenin. Briefly: Cytosolic β-catenin accumulation in human DCs (cell fractionation, Western blot). It is filed as cell-based. Particulars: human DCs (not shown).
Assay [4] deals with β-catenin. In words: Cytosolic β-catenin accumulation in murine DCs (cell fractionation, Western blot). Type of assay: cell-based. Particulars: murine immature DCs, different doses.
Experimental: BMDCs were treated with either LPS or different doses of SB216763. CD11c^+ DCs were then fractionated into membrane and cytosolic fractions, followed by immunoblotting with antibodies against β-catenin (top) and E-cadherin (middle). Akt was probed as a loading control (bottom).
SB 216763 was purchased from Tocris Cookson Inc. (Ellisville, Mo.). […] Cell Culture and purification of DC, OT-I and OT-II T cells Mouse DM-derived CD11c^+ DCs were isolated using anti-CD11c-conjugated beads and columns (Miltenyi Biotech) according to the manufacturer's protocol. The resulted CD11c^+ DCs were then resuspended in the same culture media at 5-10×10^5 cells/ml; these cells were in single cell suspension and thus referred as cluster-disrupted cells. […] Cell fractionation, Immunoprecipitation and Western blotting Cells were homogenized in hypotonic buffer (10 mM HEPES-KOH pH 7.4, 1.5 mM MgCl2, 10 mM KCl, 0.5 mM DTT) with proteinase and phosphatase inhibitors by passing through 30 gauge needles for 10 times. Postnuclear fractions were centrifuged at 45,000 rpm for 45 min to separate membrane and cytosol fractions. Total cell lysates were obtained with 1% NP-40 lysis buffer (1% Nonidet P-40, 150 mM NaCl, 20 mM Tris, and ImM EDTA (pH 7.5)) supplemented with proteinase and phosphatase inhibitors.

The structures appear in SMILES notation. Entries after “also recorded” stand apart in the source; their conditions may differ.

Chain of GSK3β (P49841 whole entry, species assumed): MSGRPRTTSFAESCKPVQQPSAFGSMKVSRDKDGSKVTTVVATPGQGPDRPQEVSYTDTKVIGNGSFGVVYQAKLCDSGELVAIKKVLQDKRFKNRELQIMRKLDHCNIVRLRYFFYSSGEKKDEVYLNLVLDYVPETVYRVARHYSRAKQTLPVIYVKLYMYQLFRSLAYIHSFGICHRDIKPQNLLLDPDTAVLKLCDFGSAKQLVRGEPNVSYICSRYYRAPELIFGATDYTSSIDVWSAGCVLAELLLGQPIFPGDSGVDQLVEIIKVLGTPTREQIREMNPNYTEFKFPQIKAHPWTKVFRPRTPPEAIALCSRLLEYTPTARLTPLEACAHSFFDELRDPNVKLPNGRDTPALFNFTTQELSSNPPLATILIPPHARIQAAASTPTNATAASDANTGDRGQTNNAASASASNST
Experimental for CD11c+ DCs: BMDCs were prepared as described and CD11c^+ DCs were purified at day 6 and replated at 5×10^5 cells/ml.
CD11c^+ DCs after different stimuli were subject to FACS analysis.
SB 216763 was purchased from Tocris Cookson Inc. (Ellisville, Mo.). […] Flow Cytometry Assays Cells were stained for 30 min on ice with primary antibody and if necessary secondary antibody, washed, and then evaluated on a FACSCalibur™ (Becton Dickinson). […] Cell Culture and purification of DC, OT-I and OT-II T cells Mouse DM-derived CD11c^+ DCs were isolated using anti-CD11c-conjugated beads and columns (Miltenyi Biotech) according to the manufacturer's protocol. The resulted CD11c^+ DCs were then resuspended in the same culture media at 5-10×10^5 cells/ml; these cells were in single cell suspension and thus referred as cluster-disrupted cells.

As for `Cn1cc(C2=C(c3ccc(Cl)cc3Cl)C(=O)NC2=O)c2ccccc21` [SB216763], the “production of inflammatory cytokines” value in the assay on DCs [1] is “failed to induce the production of inflammatory cytokines”. Besides, the “formation of chemokines (eg IP10, MCP-1, MIP-α, CXCL8)” value in the assay with DCs [1] (compared with cluster disruption) is “induced the formation of the same array of chemokines as did CD”. In addition, the “effectiveness at triggering DC maturation compared with LPS and cluster disruption (CD)” value in the assay with CD11c+ DCs (10 μM) is “nearly as effective as LPS at triggering DC maturation, and slightly more effective than CD”. Also, the “mature population (percentage of cells expressing high CD86)” value in the assay on CD11c+ DCs (added to immature DCs, different doses) is recorded as “increased in a dose-dependent manner; also recorded: results in DC maturation”. Moreover, the “selectivity as GSK3β inhibitor” value at GSK3β is “selective inhibitor of GSK3β”. Further, in the assay on DCs [2], the “mature DC phenotype, MHC class II distribution” value is “MHC class II molecules redistributing from lysosomes to the plasma membrane”. The “activation of β-catenin (active, non-phosphorylated β-catenin)” value with active β-catenin is reported as “Resulted in Activation of β-Catenin”. Further, the results for the “accumulation of β-catenin in the cytosol” value in the assay on β-catenin [3] and with β-catenin [4] were “dose-dependent accumulation of β-catenin in the cytosol” and “dose-dependent accumulation of β-catenin in the cytosol; also recorded: Dose-dependent accumulation of cytosolic β-catenin”, respectively.

Source of the values: patent US20090306045A1, “Inhibition of Glycogen Synthase Kinase and Methods of Treating Autoimmune or Immune Inflammatory Disease” (priority 2005, published 2009).
